From ChEMBL document CHEMBL3112534, “A click chemistry approach to pleuromutilin derivatives. Part 3: extended footprinting analysis and excellent MRSA inhibition for a derivative with an adenine phenyl side chain” (2014)
≈ marks a conversion by molar mass, not a printed value. Calls of active or inactive are those of the source. No cut-off for these calls is given here.

Tests used:
[1] = tested on: Staphylococcus aureus; assay: Antimicrobial activity against […] Staphylococcus aureus RN4220 after 20 hrs by two-fold broth dilution assay; format: functional; settings: RN4220, 20 h
[2] = tested on: Escherichia coli; assay: Antimicrobial activity against […] Escherichia coli AS19 after 20 hrs by two-fold broth dilution assay; format: functional; settings: AS19, 20 h
[3] = tested on: Escherichia coli; assay: Binding affinity to Escherichia coli MRE600 23S rRNA assessed as protection of A2059 at 25 uM by footprinting assay relative to control in presence of DMS
[4] = tested on: Staphylococcus aureus; assay: Antimicrobial activity against methicillin-resistant Staphylococcus aureus USA300 after 20 hrs by two-fold broth dilution assay; format: functional; settings: USA300, 20 h
[5] = tested on: Escherichia coli; assay: Binding affinity to Escherichia coli MRE600 23S rRNA assessed as protection of U2506 at 5 uM by footprinting assay relative to control in presence of CMCT
[6] = tested on: Escherichia coli; assay: Binding affinity to Escherichia coli MRE600 23S rRNA assessed as protection of U2585 at 5 uM by footprinting assay relative to control in presence of CMCT
[7] = tested on: Escherichia coli; assay: Binding affinity to Escherichia coli MRE600 23S rRNA assessed as protection of U2506 at 50 uM by footprinting assay relative to control in presence of CMCT
[8] = tested on: Escherichia coli; assay: Binding affinity to Escherichia coli MRE600 23S rRNA assessed as protection of U2585 at 50 uM by footprinting assay relative to control in presence of CMCT
[9] = tested on: Escherichia coli; assay: Binding affinity to Escherichia coli MRE600 23S rRNA assessed as protection of A2062 at 25 uM by footprinting assay relative to control in presence of DMS

SMILES	MIC [1]	MIC [2]	Activity [3]	MIC [4]	Activity [5]	Activity [6]	Activity [7]	Activity [8]	Activity [9]
C=C[C@]1(C)C[C@@H](OC(=O)Cn2nncc2CCCn2cnc3c(N)ncnc32)[C@]2(C)[C@H](C)CC[C@]3(CCC(=O)[C@H]32)[C@@H](C)[C@@H]1O	4 mg/L (≈ 6.61 µM)	4 mg/L (≈ 6.61 µM)	inactive	> 4 mg/L					
C=C[C@]1(C)C[C@@H](OC(=O)Cn2cc(CN(CC)CC)nn2)[C@]2(C)[C@H](C)CC[C@]3(CCC(=O)[C@H]32)[C@@H](C)[C@@H]1O	> 4 mg/L	≥ 4 mg/L		> 4 mg/L	27%	51%	8%	28%	
C=C[C@]1(C)C[C@@H](OC(=O)CO)[C@]2(C)[C@H](C)CC[C@]3(CCC(=O)[C@@H]32)[C@@H](C)[C@@H]1O					15%	73%	5%	59%	
C=C[C@]1(C)C[C@@H](OC(=O)Cn2cc(-c3cccc(-n4cnc5c(N)ncnc54)c3)nn2)[C@]2(C)[C@H](C)CC[C@]3(CCC(=O)[C@H]32)[C@@H](C)[C@@H]1O	0.06 mg/L (≈ 0.0939 µM)	0.5 mg/L (≈ 0.783 µM)		0.06 mg/L (≈ 0.0939 µM)					
C=C[C@]1(C)C[C@@H](OC(=O)CSC(C)(C)CNC(=O)[C@H](N)C(C)C)[C@]2(C)[C@H](C)CC[C@]3(CCC(=O)[C@H]32)[C@@H](C)[C@@H]1O [VALNEMULIN]	0.03 mg/L (≈ 0.0531 µM)	0.03 mg/L (≈ 0.0531 µM)		0.06 mg/L (≈ 0.106 µM)	2%	10%	2%	12%	
C=C[C@]1(C)C[C@@H](OC(=O)Cn2cc(-c3ccc(-n4cnc5c(N)ncnc54)cc3)nn2)[C@]2(C)[C@H](C)CC[C@]3(CCC(=O)[C@H]32)[C@@H](C)[C@@H]1O	0.5 mg/L (≈ 0.783 µM)	4 mg/L (≈ 6.26 µM)	inactive	0.5 mg/L (≈ 0.783 µM)					inactive
C=C[C@]1(C)C[C@@H](OC(=O)Cn2cc(/C=C/Cn3cnc4c(N)ncnc43)nn2)[C@]2(C)[C@H](C)CC[C@]3(CCC(=O)[C@H]32)[C@@H](C)[C@@H]1O	1 mg/L (≈ 1.66 µM)	2 mg/L (≈ 3.32 µM)		1 mg/L (≈ 1.66 µM)					
C=C[C@]1(C)C[C@@H](OC(=O)Cn2cc(COCCn3cnc4c(N)ncnc43)nn2)[C@]2(C)[C@H](C)CC[C@]3(CCC(=O)[C@H]32)[C@@H](C)[C@@H]1O	> 4 mg/L	> 4 mg/L		> 4 mg/L	9%	27%	4%	14%	
C=C[C@]1(C)C[C@@H](OC(=O)Cn2cc(CCCn3cnc4c(N)ncnc43)nn2)[C@]2(C)[C@H](C)CC[C@]3(CCC(=O)[C@H]32)[C@@H](C)[C@@H]1O	2 mg/L (≈ 3.31 µM)	2 mg/L (≈ 3.31 µM)		2 mg/L (≈ 3.31 µM)					
C=C[C@]1(C)C[C@@H](OC(=O)CSCCN(CC)CC)[C@]2(C)[C@H](C)CC[C@]3(CCC(=O)[C@H]32)[C@@H](C)[C@@H]1O [TIAMULIN]	0.5 mg/L (≈ 1.01 µM)	0.25 mg/L (≈ 0.506 µM)		1 mg/L (≈ 2.03 µM)	5%	41%	3%	40%	
